In patent publication US20220016277A1, “MACROCYCLIC COMPLEXES OF RADIONUCLIDES AND THEIR USE IN RADIOTHERAPY OF CANCER” (Cornell University, priority 2018, published 2022):

Assay: Organ distribution of ^225Ac complexes following intravenous injection in mice
Type: in vivo, C57BL/6 mice
Description: In Vivo Biodistribution of ^225Ac Complexes of Macropa and DOTA. All experiments were approved by the Institutional Animal Care Committee (IACC) of the University of British Columbia and were performed in accordance with the Canadian Council on Animal Care Guidelines. A total of 9 female C57BL/6 mice (6-8 weeks old, 20-25 g) were used for the biodistribution study of each radiometal complex, n=3 for each time point.
Macropa (100 μL of a 1 mg/mL solution in NH4OAc) was diluted with 387 μL of NH4OAc (1 M, pH 7), and an aliquot (203 μL) of ^225Ac(NO3)3 (˜157 kBq) was then added; the pH of this solution was adjusted to 6.5-7 by the addition of 1 M NaOH (210 μL, trace metal grade). After 5 min at ambient temperature, the reaction solution was analyzed by TLC (0.4 M pH 4 sodium citrate as the eluent), which confirmed >95% radiochemical yield. The reaction was allowed to proceed overnight, and the radiochemical yield was again confirmed to be >95% the following morning. At this time, mice were anesthetized by 2% isoflurane, and approximately 100 μL (10-15 kBq) of the [^225Ac(macropa)]^+ complex were injected into the tail vein of each mouse. After injection, mice were allowed to recover and roam freely in their cages, and were euthanized by CO2 inhalation at 15 min, 1 h, or 5 h (n=3 at each time point) post-injection. Blood was collected by cardiac puncture and placed into an appropriate test tube for scintillation counting. Tissues collected included heart, liver, kidneys, lungs, small intestine, large intestine, brain, bladder, spleen, stomach, pancreas, bone, thyroid, tail, urine, and feces. Tissues were weighed and then counted with a calibrated gamma counter (Packard, Cobra II model 5002) using three energy windows: 60-120 keV (window A), 180-260 keV (window B), and 400-480 keV (window C). Counting was performed both immediately after sacrifice and after 7 days; counts were decay corrected from the time of injection and then converted to the percentage of injected dose (% ID) per gram of tissue (% ID/g). […]
The biodistribution studies of [^225Ac(DOTA)]^− and ^225Ac(NO3)3 were carried out as described above for [^225Ac(macropa)]^+, with the following modifications. [^225Ac(DOTA)^− was prepared by adding ^225Ac(NO3)3 (338 μL, 1.1 MBq) to a solution of DOTA (100 μg, 20 mg/mL in H2O) in NH4OAc (467 μL, 0.15 M, pH 7). The pH of the solution was adjusted to 7 using NH4OAc (150 μL, 1 M, pH 7) and the solution was heated at 85° C. for 45 min. RCY >99% was confirmed by TLC as described above. [^225Ac(DOTA)]^− was diluted with saline to a final concentration of 0.05 MBq/100 μL, and 100 μL were injected into each mouse. ^225Ac(NO3)3 (˜58 μL, 0.4 MBq) was diluted and injected in the same manner as [^225Ac(DOTA)]^−. One mouse that was to be euthanized at the 5 h time point in the [^225Ac(DOTA)]^− study died shortly after injection. In the same manner, one mouse that was to be euthanized at the 1 h time point in the ^225Ac(NO3)3 study died.
The in vivo stability [^225Ac(macropa)]^+ was examined by comparing its biodistribution to those of ^225Ac(NO3)3 and [^225Ac(DOTA)]^−. C57BL/6 mice were injected via tail vein with 10-50 kBq of each radiometal complex and were sacrificed after 15 min, 1 h, or 5 h. The amount of ^225Ac retained in each organ was quantified by gamma counting and reported as the percent of injected dose per gram of tissue (% ID/g). The results of these studies are compiled in Tables 1-3. Inadequate stability of an ^225Ac complex leading to the loss of radioisotope in vivo is manifested by the accumulation of ^225Ac in the liver, spleen, and bone of mice.^[11,12,32] […] The biodistribution profile of [^225Ac(macropa)]^+ (FIG. 3B) differs markedly from that of ^225Ac(NO3)3. […] Its biodistribution profile was similar to that of [^225Ac(DOTA)]^− (FIG. 3C), which has been previously shown to retain ^225Ac^3+ in vivo.^[7]

[1] = 15 min post i.v. injection, energy window A (60-120 keV)
[2] = 15 min post i.v. injection, energy window B (180-260 keV)
[3] = 15 min post i.v. injection, energy window C (400-480 keV)
[4] = 1 h post i.v. injection, energy window A (60-120 keV)
[5] = 1 h post i.v. injection, energy window B (180-260 keV)

In the case of O=C([O-])c1cccc(CN2CCOCCOCCN(Cc3cccc(C(=O)[O-])n3)CCOCCOCC2)n1.[225Ac+3] [[^225Ac(macropa)]^+], the “Organ distribution: bladder” value [1] is reported as 46.74 % ID/g, the “Organ distribution: blood” value [1] is reported as 5.11 % ID/g and the “Organ distribution: bone (femur + joint)” value [1] is reported as 2.52 % ID/g. For the same compound, the “Organ distribution: brain” value [1] was 0.26 % ID/g, the “Organ distribution: feces” value [1] was 0.91 % ID/g and the “Organ distribution: heart” value [1] was 2.19 % ID/g. For the same compound, the “Organ distribution: kidneys” value [1] was 27.55 % ID/g, the “Organ distribution: large intestines” value [1] was 2.40 % ID/g and the “Organ distribution: liver” value [1] was 2.28 % ID/g. The “Organ distribution: lungs” value [1] was 5.98 % ID/g, the “Organ distribution: pancreas” value [1] was 1.46 % ID/g and the “Organ distribution: small intestines” value [1] was 2.64 % ID/g. For the same compound, the “Organ distribution: spleen” value [1] was 2.52 % ID/g, the “Organ distribution: stomach” value [1] was 2.97 % ID/g and the “Organ distribution: tail” value [1] was 8.84 % ID/g. The “Organ distribution: thyroids” value [1] was 28.23 % ID/g, the “Organ distribution: urine” value [1] was 1378.82 % ID/g and the “Organ distribution: bladder” value [2] was 47.64 % ID/g. The “Organ distribution: blood” value [2] was 5.23 % ID/g, the “Organ distribution: bone (femur + joint)” value [2] was 2.69 % ID/g and the “Organ distribution: brain” value [2] was 0.23 % ID/g. For the same compound, the “Organ distribution: feces” value [2] was 1.04 % ID/g, the “Organ distribution: heart” value [2] was 2.39 % ID/g and the “Organ distribution: kidneys” value [2] was 27.86 % ID/g. For the same compound, the “Organ distribution: large intestines” value [2] was 2.53 % ID/g, the “Organ distribution: liver” value [2] was 2.17 % ID/g and the “Organ distribution: lungs” value [2] was 5.83 % ID/g. The “Organ distribution: pancreas” value [2] was 1.63 % ID/g, the “Organ distribution: small intestines” value [2] was 2.59 % ID/g and the “Organ distribution: spleen” value [2] was 2.55 % ID/g. The “Organ distribution: stomach” value [2] was 3.29 % ID/g, the “Organ distribution: tail” value [2] was 9.39 % ID/g and the “Organ distribution: thyroids” value [2] was −2.22 % ID/g. The “Organ distribution: urine” value [2] was 1541.60 % ID/g, the “Organ distribution: bladder” value [3] was 64.68 % ID/g and the “Organ distribution: blood” value [3] was 6.49 % ID/g. The “Organ distribution: bone (femur + joint)” value [3] was 3.74 % ID/g, the “Organ distribution: brain” value [3] was 0.17 % ID/g and the “Organ distribution: feces” value [3] was 1.26 % ID/g. The “Organ distribution: heart” value [3] was 2.87 % ID/g, the “Organ distribution: kidneys” value [3] was 33.46 % ID/g and the “Organ distribution: large intestines” value [3] was 3.02 % ID/g. The “Organ distribution: liver” value [3] was 2.72 % ID/g, the “Organ distribution: lungs” value [3] was 7.55 % ID/g and the “Organ distribution: pancreas” value [3] was 3.00 % ID/g. The “Organ distribution: small intestines” value [3] was 3.46 % ID/g, the “Organ distribution: spleen” value [3] was 3.79 % ID/g and the “Organ distribution: stomach” value [3] was 3.45 % ID/g. The “Organ distribution: tail” value [3] was 11.75 % ID/g, the “Organ distribution: thyroids” value [3] was −6.46 % ID/g and the “Organ distribution: urine” value [3] was 2387.66 % ID/g. For the same compound, the “Organ distribution: bladder” value [4] was 6.23 % ID/g, the “Organ distribution: blood” value [4] was 0.40 % ID/g and the “Organ distribution: bone (femur + joint)” value [4] was 0.31 % ID/g. For the same compound, the “Organ distribution: brain” value [4] was 0.12 % ID/g, the “Organ distribution: feces” value [4] was 0.28 % ID/g and the “Organ distribution: heart” value [4] was 0.31 % ID/g. For the same compound, the “Organ distribution: kidneys” value [4] was 13.36 % ID/g, the “Organ distribution: large intestines” value [4] was 0.36 % ID/g and the “Organ distribution: liver” value [4] was 0.75 % ID/g. For the same compound, the “Organ distribution: lungs” value [4] was 0.51 % ID/g, the “Organ distribution: pancreas” value [4] was 0.19 % ID/g and the “Organ distribution: small intestines” value [4] was 1.10 % ID/g. For the same compound, the “Organ distribution: spleen” value [4] was 0.51 % ID/g, the “Organ distribution: stomach” value [4] was 0.41 % ID/g and the “Organ distribution: tail” value [4] was 1.82 % ID/g. The “Organ distribution: thyroids” value [4] was 3.18 % ID/g, the “Organ distribution: urine” value [4] was 489.11 % ID/g and the “Organ distribution: bladder” value [5] was 5.92 % ID/g. The “Organ distribution: blood” value [5] was 0.39 % ID/g, the “Organ distribution: bone (femur + joint)” value [5] was 0.17 % ID/g and the “Organ distribution: brain” value [5] was 0.12 % ID/g. The “Organ distribution: feces” value [5] was 0.27 % ID/g, the “Organ distribution: heart” value [5] was 0.20 % ID/g and the “Organ distribution: kidneys” value [5] was 12.97 % ID/g. The “Organ distribution: large intestines” value [5] was 0.22 % ID/g and the “Organ distribution: liver” value [5] was 0.70 % ID/g.
